We go through 17 compounds from PubChem BioAssay (NCI).

Some test systems named below: M14 melanoma; SNB-19 CNS; HL-60(TB) leukemia; XF 498 CNS; M19-MEL melanoma; ACHN renal; OVCAR-5 ovarian; HCT-15 colon; SNB-78 CNS; UACC-62 melanoma; LOX IMVI melanoma; HOP-18 NSCLC; DLD-1 colon.
Common to all, as to assay: NCI-60 cell line screen, 48 h

The structures appear in SMILES notation.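 A five-concentration, 48-hour dose response in 96-well plates underlies each endpoint, interpolated linearly between surrounding concentrations. TGI denotes the concentration required for complete inhibition of growth.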

Consider `CCN(CC)Cc1cc(Nc2ccnc3ccc4nn(C)nc4c23)ccc1O`, for which the TGI in the experiment with M14 melanoma is 27.9 µM; with SNB-19 CNS, greater than 100 µM; with HL-60(TB) leukemia it was greater than 100 µM; with XF 498 CNS it was 24.3 µM; with M19-MEL melanoma, 24.7 µM; in the experiment with ACHN renal, 68.3 µM. Moreover, the TGI was determined as 35.7 µM in the experiment with OVCAR-5 ovarian; 43.8 µM in the experiment on HCT-15 colon; 44.9 µM in the experiment with SNB-78 CNS; 27.4 µM with UACC-62 melanoma; 21.5 µM in the experiment on LOX IMVI melanoma.
With `CC(C)c1ccc(/C=C/c2cc(C(=O)NNC(=O)NC3CCCCC3)nc(=S)[nH]2)cc1`, the TGI in the experiment with HOP-18 NSCLC, in the experiment on M14 melanoma, in the experiment with SNB-19 CNS, in the experiment with DLD-1 colon, with XF 498 CNS and in the experiment with M19-MEL melanoma was greater than 100 µM throughout. The TGI in the experiment with ACHN renal, with OVCAR-5 ovarian, in the experiment with HCT-15 colon, in the experiment with SNB-78 CNS, in the experiment with UACC-62 melanoma and with LOX IMVI melanoma was greater than 100 µM throughout.
In the case of `C/C(=N/O)c1sc(-c2nc(C)c(/C(C)=N\O)s2)nc1C`, the TGI in the experiment with HOP-18 NSCLC, in the experiment on M14 melanoma, in the experiment with SNB-19 CNS, in the experiment with DLD-1 colon, in the experiment with HL-60(TB) leukemia and with XF 498 CNS was greater than 100 µM in each case. In addition, the TGI in the experiment with M19-MEL melanoma, in the experiment with ACHN renal, in the experiment on HCT-15 colon, in the experiment on SNB-78 CNS, in the experiment on UACC-62 melanoma and in the experiment on LOX IMVI melanoma was greater than 100 µM each time.
On to `O=C(O)c1ccc([C@@H]2C(=O)N(O)[C@@H]3C=CC[C@@H]32)cc1`, for which the TGI in the experiment on M14 melanoma, in the experiment on SNB-19 CNS, in the experiment with DLD-1 colon, in the experiment with HL-60(TB) leukemia, with XF 498 CNS and with M19-MEL melanoma was greater than 100 µM in each case. Further, the TGI in the experiment with HCT-15 colon, in the experiment with SNB-78 CNS, with UACC-62 melanoma and in the experiment with LOX IMVI melanoma was greater than 100 µM in each case.
On to `Cc1nc2c3c(ccc2[nH]c1=O)C(=O)c1ccccc1C3=O`, for which the TGI in the experiment with HOP-18 NSCLC, in the experiment with M14 melanoma, in the experiment with SNB-19 CNS, with DLD-1 colon, in the experiment with HL-60(TB) leukemia and in the experiment with XF 498 CNS was greater than 100 µM each time. The TGI with M19-MEL melanoma, with ACHN renal, in the experiment with OVCAR-5 ovarian, in the experiment with HCT-15 colon, with UACC-62 melanoma and in the experiment with LOX IMVI melanoma was greater than 100 µM each time.
On to `COC(=O)C(=O)C(/C(=N/N)C(=O)Nc1ccccc1C(N)=O)c1nc2ccc([N+](=O)[O-])cc2[nH]c1=O` (stereo unspecified), for which the TGI in the experiment on M14 melanoma, with SNB-19 CNS, in the experiment with DLD-1 colon, with HL-60(TB) leukemia, in the experiment on XF 498 CNS and in the experiment with M19-MEL melanoma was greater than 100 µM each time. Besides, the TGI in the experiment on ACHN renal, in the experiment with OVCAR-5 ovarian, with HCT-15 colon, in the experiment with SNB-78 CNS, in the experiment with UACC-62 melanoma and with LOX IMVI melanoma was greater than 100 µM each time.
Regarding `CC1=C(C(=O)CC(=O)C(=O)Nc2ccc(C)c(C)c2)Sc2ccccc2N1`, the TGI in the experiment with HOP-18 NSCLC, in the experiment on M14 melanoma, in the experiment with SNB-19 CNS, in the experiment on DLD-1 colon, with XF 498 CNS and in the experiment with M19-MEL melanoma was greater than 100 µM in each case. The TGI in the experiment on ACHN renal, in the experiment with OVCAR-5 ovarian, in the experiment with HCT-15 colon, in the experiment on SNB-78 CNS, with UACC-62 melanoma and with LOX IMVI melanoma was greater than 100 µM in each case.
In the case of `CN(C)C(=NC#N)N(Cc1ccccc1)Cc1ccccc1`, the TGI with HOP-18 NSCLC, with M14 melanoma, in the experiment on SNB-19 CNS, with DLD-1 colon, with HL-60(TB) leukemia and with M19-MEL melanoma was greater than 100 µM each time. Also, the TGI with ACHN renal was greater than 100 µM; in the experiment on OVCAR-5 ovarian it was greater than 100 µM; with HCT-15 colon, 30.1 µM; in the experiment on SNB-78 CNS, greater than 100 µM; in the experiment on UACC-62 melanoma, greater than 100 µM; in the experiment on LOX IMVI melanoma, greater than 100 µM.
In the case of `COc1ccccc1NC(=O)CC(=O)N1N=C(c2ccccc2)C(N=Nc2ccc(Cl)cc2)C1=O` (stereo unspecified), the TGI with M14 melanoma, with SNB-19 CNS, in the experiment on DLD-1 colon, with HL-60(TB) leukemia, in the experiment with XF 498 CNS and in the experiment with M19-MEL melanoma was greater than 100 µM throughout. Moreover, the TGI in the experiment on ACHN renal is 47.3 µM; in the experiment on OVCAR-5 ovarian, greater than 100 µM; in the experiment on HCT-15 colon, greater than 100 µM; with SNB-78 CNS it was greater than 100 µM; in the experiment with UACC-62 melanoma, 89.7 µM; with LOX IMVI melanoma, greater than 100 µM.
As for `Cc1ccc(-c2nnc3s/c(=C\c4ccc(N(C)C)cc4)c(=O)n23)cc1`, the TGI in the experiment with HOP-18 NSCLC, in the experiment with M14 melanoma, with SNB-19 CNS, with DLD-1 colon, in the experiment with HL-60(TB) leukemia and in the experiment on XF 498 CNS was greater than 100 µM throughout. The TGI in the experiment with M19-MEL melanoma, in the experiment on ACHN renal, with OVCAR-5 ovarian, in the experiment with SNB-78 CNS, in the experiment with UACC-62 melanoma and in the experiment with LOX IMVI melanoma was greater than 100 µM each time.
On to `O=C(O)CCN(CCCN(CCC(=O)O)CCC(=O)O)CCC(=O)O`, for which the TGI in the experiment with HOP-18 NSCLC, in the experiment with M14 melanoma, with DLD-1 colon, in the experiment on HL-60(TB) leukemia, in the experiment with XF 498 CNS and in the experiment with M19-MEL melanoma was greater than 100 µM in each case. Further, the TGI with ACHN renal, in the experiment with OVCAR-5 ovarian, in the experiment on HCT-15 colon, in the experiment with UACC-62 melanoma and with LOX IMVI melanoma was greater than 100 µM in each case.
In the case of `COC(=O)C(c1ccc(OC)cc1)N1C(=O)[C@@H](NC(=O)c2ccccc2)[C@H]1[C@@H](C)O` (stereo partly specified), the TGI in the experiment with M14 melanoma, with SNB-19 CNS, with DLD-1 colon, in the experiment with HL-60(TB) leukemia, in the experiment with XF 498 CNS and with M19-MEL melanoma was greater than 100 µM each time. In addition, the TGI in the experiment with ACHN renal, in the experiment on HCT-15 colon, with SNB-78 CNS, in the experiment on UACC-62 melanoma and in the experiment with LOX IMVI melanoma was greater than 100 µM each time.
Regarding `O=C1C(c2ccccc2)=C(c2ccccc2)C(c2ccc(Sc3ccc(C4=C(c5ccccc5)C(=O)C(c5ccccc5)=C4c4ccccc4)cc3)cc2)=C1c1ccccc1`, the TGI in the experiment on M14 melanoma, in the experiment with SNB-19 CNS, in the experiment with DLD-1 colon, in the experiment on HL-60(TB) leukemia, with XF 498 CNS and in the experiment with M19-MEL melanoma was greater than 100 µM throughout. Moreover, the TGI in the experiment on OVCAR-5 ovarian, with HCT-15 colon, in the experiment with SNB-78 CNS, with UACC-62 melanoma and in the experiment with LOX IMVI melanoma was greater than 100 µM throughout.
As for `NC(CCCCNCc1ccccc1)C(=O)O` (stereo unspecified), the TGI with HOP-18 NSCLC, with M14 melanoma, with SNB-19 CNS, in the experiment with DLD-1 colon, with HL-60(TB) leukemia and in the experiment on M19-MEL melanoma was greater than 100 µM in each case. Moreover, the TGI in the experiment on ACHN renal, with OVCAR-5 ovarian, in the experiment with HCT-15 colon, with SNB-78 CNS, in the experiment with UACC-62 melanoma and in the experiment with LOX IMVI melanoma was greater than 100 µM each time.
`O=C(CC1(O)C(=O)Nc2c(Cl)cc(Cl)cc21)c1ccc(F)cc1` (stereo unspecified): the TGI in the experiment with HOP-18 NSCLC was greater than 100 µM; in the experiment with M14 melanoma, greater than 100 µM; in the experiment with SNB-19 CNS, greater than 100 µM; with DLD-1 colon it was greater than 100 µM; in the experiment with XF 498 CNS, 39.9 µM; in the experiment on M19-MEL melanoma, 34 µM. Besides, the TGI in the experiment with ACHN renal was greater than 100 µM; with OVCAR-5 ovarian, greater than 100 µM; with HCT-15 colon, greater than 100 µM; with SNB-78 CNS, greater than 100 µM; with UACC-62 melanoma, greater than 100 µM; with LOX IMVI melanoma, 66.5 µM.
Consider `CC(=O)NNc1nc(C)c(C(=O)/C=C/c2ccc(Cl)c(Cl)c2)s1`, for which the TGI in the experiment on HOP-18 NSCLC, with SNB-19 CNS, with DLD-1 colon, with HL-60(TB) leukemia, with M19-MEL melanoma and in the experiment on ACHN renal was greater than 100 µM throughout. Besides, the TGI in the experiment on OVCAR-5 ovarian, in the experiment on HCT-15 colon, in the experiment on SNB-78 CNS, in the experiment with UACC-62 melanoma and in the experiment on LOX IMVI melanoma was greater than 100 µM throughout.
On to `NC(N)=NS(=O)(=O)c1ccc(NC(=O)c2cccc3c(N)c4ccccc4nc23)cc1`, for which the TGI in the experiment with M14 melanoma, in the experiment on SNB-19 CNS, with DLD-1 colon, in the experiment with XF 498 CNS, in the experiment with M19-MEL melanoma and with ACHN renal was greater than 100 µM throughout. Besides, the TGI in the experiment on OVCAR-5 ovarian, with HCT-15 colon, in the experiment on SNB-78 CNS, in the experiment on UACC-62 melanoma and in the experiment on LOX IMVI melanoma was greater than 100 µM in each case.
